Source: paper PMC8316002, “Inhibition of Escherichia coli Lipoprotein Diacylglyceryl Transferase Is Insensitive to Resistance Caused by Deletion of Braun’s Lipoprotein” (Journal of Bacteriology, 2021)
Where a SMILES comes first, the peptide text is derived from it. Bridges are numbered along the chain shown (N, C = ends). [ ]: non-standard residue; d: D form. Bip = N[C@@H](Cc1ccc(-c2ccccc2)cc1)C(=O)O; NMeF = CN[C@@H](Cc1ccccc1)C(=O)O

Assays:
WT CFT073 = test: MIC assay, WT CFT073 (Table 1); format: cell-based, E. coli; conditions: Escherichia coli, average of two independent experiments, each in duplicates, CLSI
Experimental: Unless stated otherwise, E. coli cells were grown in Luria-Bertani (LB) medium (0.5% yeast extract, 1% tryptone, 0.5% NaCl) at 37°C. Where indicated, kanamycin (Kan) was added to culture media at a 50-μg/ml final concentration. MIC assays were performed based on Clinical and Laboratory Standards Institute (CLSI) guidelines. For in vitro growth curves, overnight cultures of WT CFT073, CFT073 Δlgt, and CFT073 Δlgt complemented with lgt from E. coli (lgt^Ec) or P. aeruginosa (lgt^Pa) were grown to mid-exponential phase (optical density at 600 nm [OD600] of 0.6) and then diluted to an OD600 of 0.1 to initiate growth curves. At various times, culture aliquots were diluted and plated in dilutions on LB+Kan agar, and CFU were enumerated in duplicates. Growth of MG1655 inducible deletion strains was measured by culturing in the presence of 2-fold dilutions of arabinose (starting arabinose concentrations for CFT073 and MG1655 inducible deletion strains were 4% and 0.8%, respectively). While […] was sufficient for WT growth of MG1655 Δlgt, 4% arabinose was used for CFT073 Δlgt based on comparing its growth to that of WT CFT073 as measured by CFU. OD600 growth measurements were performed using an EnVision 2101 multilabel reader plate reader (PerkinElmer) linked with Echo liquid handler (Labcyte). For time-kill experiments, bacteria were harvested in mid-exponential phase and treated with 12.5 μM G2824, 3.2 μM globomycin, and 1.6 μM vancomycin. CFU were enumerated at various times posttreatment. Bacterial culture medium containing 2% arabinose was used to induce lpp or lppΔK expression from pBad24 plasmids. Bacterial viability at different time points during the treatment was measured by enumerating CFU. Serum killing assays were carried out as previously described ([17]).

BW25113 cells, lspA gRNA = test: CRISPRi knockdown sensitization, lspA gRNA; format: cell-based, E. coli; conditions: 2 μM G2824, 0.05 μM globomycin or 0.016 μM ciprofloxacin; OD600 relative to untreated, versus scr or folA gRNA
From the text: The two-plasmid bacterial CRISPRi system pdCas9-bacteria_GNE and PGNRNA-bacteria_GNE are based on the AddGene plasmids 44249 and 44251 ([73]), respectively. The plasmid was synthesized in smaller DNA fragments (500 bp to 3 kb) (IDT gBlocks) and assembled by Gibson assembly (NEB) according to the manufacturer’s protocols. Plasmids were confirmed by sequencing (ELIM Bio). gRNAs were designed to target the 5′ end of the gene on the nontemplate strand using Benchling CRISPR software ([74]). gRNAs were cloned into PGNRNA-bacteria using Gibson assembly (NEB) according to the manufacturer’s protocols and sequence confirmed (ELIM Bio).
Bacterial cultures were grown overnight on LB agar supplemented with carbenicillin (50 μg/ml) and chloramphenicol (12.5 μg/ml) to maintain both plasmids, pdCas9-bacteria and PGNRNA-bacteria with each gRNA as appropriate. Cells were scraped from the plate into fresh medium. The OD600 was measured, and the culture was subsequently diluted to an OD600 0.001 in the presence or absence of G2824, globomycin, or ciprofloxacin. Two hundred microliters was transferred to a 96-well plate (Corning) and monitored for growth by measuring the OD600 (EnVision multimode plate reader; PerkinElmer). All treatments were performed in triplicates. The specificity of CRISPRi downregulation was measured using reverse transcriptase quantitative PCR (RT-qPCR).

cells expressing lppΔK = test: Time-kill, CFT073 imp4213 Δlpp complemented with lpp or lppΔK; format: cell-based, E. coli; conditions: 12.5 μM G2824 or 3.2 μM globomycin; CFU; lppΔK (unable to link to PGN) versus WT lpp
From the text: To determine if loss of PGN linkage of Lpp leads to increased G2824 bactericidal activity, we treated CFT073 imp4213 Δlpp cells complemented with either WT lpp or a mutant form that is unable to covalently link to PGN (lppΔK). Using the previously described SDS fractionation protocol, we confirmed that while WT Lpp localized to both PAP and non-PAP fractions, the LppΔK mutant was primarily detected in the non-PAP fraction (see Fig. S5A). As we noted earlier, PGN-linked DGPLP (§) and other PGN-linked Lpp forms (†) were primarily detectable in the PAP fraction (Fig. S5A).
Unless stated otherwise, E. coli cells were grown in Luria-Bertani (LB) medium (0.5% yeast extract, 1% tryptone, 0.5% NaCl) at 37°C. […] Growth of MG1655 inducible deletion strains was measured by culturing in the presence of 2-fold dilutions of arabinose (starting arabinose concentrations for CFT073 and MG1655 inducible deletion strains were 4% and 0.8%, respectively). While 2% arabinose was sufficient for WT growth of MG1655 Δlgt, 4% arabinose was used for CFT073 Δlgt based on comparing its growth to that of WT CFT073 as measured by CFU. OD600 growth measurements were performed using an EnVision 2101 multilabel reader plate reader (PerkinElmer) linked with Echo liquid handler (Labcyte). […] Bacterial viability at different time points during the treatment was measured by enumerating CFU. […]

CFT073 imp4213 lpp^Ara = test: Western blot of Lpp forms, arabinose-inducible Lpp; format: cell-based, E. coli; conditions: Lpp induced with arabinose prior to treatment
From the text: Lpp expression was induced prior to treatment with G2824 or globomycin to minimize the level of preexisting triacylated Lpp.
Bacterial cell samples normalized for equivalent OD600 and resuspended in BugBuster lysis buffer (Fischer Scientific) with the addition of sample buffer (LI-COR), and proteins were separated by SDS-PAGE using 16% Tricine protein gels or NuPAGE 4% to 20% bis-Tris gels (Thermo Fisher Scientific), transferred to nitrocellulose membranes using the iBlot 2 dry blotting system (Invitrogen), and blocked using LI-COR blocking buffer for 30 min. Unless stated otherwise, loading buffer with reducing agents was added and samples were not boiled prior to SDS-PAGE. For the sucrose gradient centrifugation, samples were boiled prior to running the SDS-PAGE. Primary antibodies were used at a final concentration of 1 μg/ml with some exceptions: rabbit anti-Lpp polyclonal antibody (0.1 μg/ml), murine anti-Pal 6D7 antibody (0.5 μg/ml), rabbit anti-GroEL antibody (1:10,000 final dilution), and rabbit anti-OmpA antibody (1:50,000 final dilution). The secondary antibodies were all obtained from LI-COR and used as per manufacturer’s instructions. Images were collected using the Odyssey CLx imaging system (LI-COR) and analyzed by Image Studio Lite.

Solubility (remark) = format: physicochemical; conditions: prevented agar plate-based resistance selections

CN[C@H](CC(C)C)C(=O)N[C@H]1C(=O)N[C@@H](CC(N)=O)C(=O)N[C@H]2C(=O)N[C@H]3C(=O)N[C@H](C(=O)N[C@H](C(=O)O)c4cc(O)cc(O)c4-c4cc3ccc4O)[C@H](O)c3ccc(c(Cl)c3)Oc3cc2cc(c3O[C@@H]2O[C@H](CO)[C@@H](O)[C@H](O)[C@H]2O[C@H]2C[C@](C)(N)[C@H](O)[C@H](C)O2)Oc2ccc(cc2Cl)[C@H]1O [Vancomycin]
MIC (WT CFT073): > 100 µM

CCCCCC[C@H]1OC(=O)CNC(=O)[C@H]([C@H](C)O)NC(=O)[C@H](CO)NC(=O)[C@H]([C@H](C)CC)NC(=O)[C@H](CC(C)C)N(C)C(=O)[C@@H]1C [Globomycin]
sensitization by decreased lspA expression (BW25113 cells, lspA gRNA): enhanced growth inhibition
effect of lppΔK on bactericidal killing (cells expressing lppΔK): completely resistant
level of mature Lpp (CFT073 imp4213 lpp^Ara): decreased mature Lpp

CN1C(=O)[C@H](Cc2ccc(-c3ccccc3)cc2)NC(=O)CNC(=O)[C@H](CC(=O)O)NC(=O)[C@@H](Cc2ccccc2)NC(=O)CSC[C@@H](C(=O)NCC(=O)N[C@@H](CCCCN)C(=O)N[C@@H](CCCCN)C(N)=O)NC(=O)[C@H](CCCNC(=N)N)NC(=O)[C@H](CO)NC(=O)[C@H](Cc2ccc(-c3ccccc3)cc2)NC(=O)[C@@H]1Cc1ccccc1 [G2824] ({CH2CO}-[dF]DG[Bip][NMeF][Bip]SRCGKK-NH2; thioether N-9)
solubility (Solubility (remark)): solubility issues
